Experimental data from patent publication US20210401931A1, “METHODS AND MATERIALS FOR TREATING CANCER” (Mayo Foundation for Medical Education and Research, priority 2018, published 2021).
Ends that are not written are not given here.

How the values were obtained:
[1] = system: PD-L1; assay: PD-L1 expression (western blot, RT-qPCR) in PC-3 cells expressing RL peptide; format: cell-based, human; settings: for gamma irradiation-induced upregulation of PD-L1: 12 Gy
Protocol: FIGS. 5A-K. The importance of S249/T252 phosphorylation of RB in regulation of PD-L1 expression. (A, B) PC-3 cells were infected with lentivirus expressing control shRNA, RB1-specific, p65-specific, or both shRNA. 48 hours post puromycin selection, cells were harvested for western blotting (A) and RT-qPCR analysis (B). All data were shown as mean values±SD (n=3). * P<0.05, ** P<0.01, *** P<0.001. (C, D) DU145 cells were transfected with indicated plasmids. 24 hours after transfection, cells were harvested for western blotting analysis (C) and RT-qPCR analysis (D). All data were shown as mean values±SD (n=3). * P<0.05, ** P<0.01, *** P<0.001. (E, F) DU145 cells were transfected with indicated plasmids. 24 hours after transfection, cells were harvested for western blotting analysis (E) and RT-qPCR analysis (F). All data were shown as mean values±SD (n=3). * P<0.05, ** P<0.01, *** P<0.001. (G, H) PC-3 cells were infected with lentivirus expressing control shRNA or p65-specific shRNAs. After 24 hours, cells were further transfected with empty vector or SFB-RL-S249D/T252D for another 24 hours followed by western blot analysis (G) and RT-qPCR analysis (H). All data were shown as mean values±SD (n=3). * P<0.05, ** P<0.01, *** P<0.001. (I) Representative images of IHC of anti-PD-L1 and anti-pRB-S249/T252 antibodies of TMA (n=145 TMA elements) tissue sections. Scale bars were shown as indicated. (J) Heatmap showing IHC score of PD-L1 and pRB-S249/T252 in TMA. (K) Correlation analysis of IHC score for expression of PD-L1 and pRB-S249/T252 polypeptides in prostate cancer patient specimens (n=145 TMA elements). Pearson's product-moment correlation co-efficiency and the P values were also shown.
FIGS. 6A-J. The small S249/T252 phosphorylation-mimicking polypeptide of RB blocks irradiation-induced PD-L1 expression and inhibits cancer immune evasion. (A, B) PC-3 cells were infected with lentivirus expressing control shRNA or p65-specific or shRNA. 24 hours after puromycin selection, cells were treated with or without gamma irradiation (IR) (12 Gy). 48 hours after IR treatment, cells were harvested for western blotting analysis (A) and RT-qPCR analysis (B). All data were shown as mean values±SD (n=3). * P<0.05, ** P<0.01, *** P<0.001. (C, D) PC-3 cells were treated with without gamma irradiation (12 Gy). Cells were harvested at the indicated time point for western blotting analysis (C) and RT-qPCR analysis (D). All data were shown as mean values±SD (n=3). * P<0.05, ** P<0.01, *** P<0.001. (E) Western blot analysis of WCL and co-IP samples in PC-3 cells 48 hours after treated with or without gamma irradiation (12 Gy). (F) ChIP-qPCR analysis of p65 binds at the PD-L1 promotor in PC-3 cells 48 hours after treated with or without gamma irradiation (12 Gy). All data were shown as mean values±SD (n=3). * P<0.05, ** P<0.01, *** P<0.001. (G, H) PC-3 cells were treated with or without gamma irradiation (12 Gy). 24 hours post treatment, cells were transfected with indicated constructs. 24 hours after transfection, cells were harvested for western blotting analysis (G) and RT-qPCR analysis (H). All data were shown as mean values±SD (n=3). * P<0.05, ** P<0.01, *** P<0.001. (I) PTEN-CaP8 mouse prostate cancer cells were transduced with lentivirus for control vector or the small RB S249/T252-phosphorylation-mimicking polypeptide RL-S249D/T252D. 72 hours after purimycin selection, 5×10^6 control or RL-S249D/T252D-expressing cells were injected subcutaneously into C57BL/6 mice. Mice (n=8/group) were treated with gamma irradiation (12 Gy) or mock treated, and with anti-PD-L1 (200 μg) or non-specific IgG for 45 days. (J) The absolute number of CD45^+CD8^+ T cells, CD45^+CD4^+ T cells, and CD11b^+Gr1^+ myeloid cells of implanted PTEN-CaP8 in tumors treated with indicated agents was analyzed by FACS. All data were shown as mean values±SD (n=8). ns, not significant, *** P<0.001.
Total RNA was isolated using TRIzol reagent (Thermo Fisher Scientific). […]

[2] = target: T1, p65-N (Homo sapiens, UniProt Q04206); assay: In vitro protein binding assay of RL peptide with GST-p65-N; settings: compared to phosphorylation-resistant mutant
T1 construct: made in house
T1 sequence (Q04206 19-306 limits assumed): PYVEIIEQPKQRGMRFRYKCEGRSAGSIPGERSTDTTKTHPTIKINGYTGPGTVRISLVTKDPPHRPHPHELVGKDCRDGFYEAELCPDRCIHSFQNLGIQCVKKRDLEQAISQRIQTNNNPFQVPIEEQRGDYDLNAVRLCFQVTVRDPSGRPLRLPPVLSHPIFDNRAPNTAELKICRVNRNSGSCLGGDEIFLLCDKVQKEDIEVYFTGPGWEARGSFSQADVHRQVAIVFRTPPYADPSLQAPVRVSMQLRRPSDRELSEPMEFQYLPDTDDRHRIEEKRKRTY

[3] = system: PTEN-CaP8 cells; assay: Pd-l1 and NFκB target gene expression in PTEN-CaP8 cells expressing RL peptide; format: cell-based, mouse
Protocol: FIGS. 13A-F. (A, B) PC-3 cells were treated with or without gamma irradiation (IR) (12 Gy). 24 hours post treatment, cells were treated with or without Helenalin (2 μM). 24 hours after treatment, cells were harvested for western blotting analysis (A) and RT-qPCR analysis (B). All data were shown as mean values±SD (n=3). “ns”=not significant, *** P<0.001. (C) PTEN-CaP8 cells were infected with lentivirus expression Tsin control or Tsin-RL S249D/T252D peptide. 72 hours post infection, cell were harvested for western blotting analysis. (D, E) PTEN-CaP8 cells were infected with lentivirus expression Tsin control or Tsin-RL S249D/T252D peptide. 72 hours post infection, cells were treated with or without gamma irradiation (12 Gy) for 48 hours. Cells were harvested for MTS assay (D) and RT-qPCR (E). All data were shown as mean values±SD (n=3). “ns”=not significant, ** P<0.01; *** P<0.001. (F) Schematic diagram depicting the treatment plan for mice bearing subcutaneous PTEN-CaP8 tumors.
Total RNA was isolated using TRIzol reagent (Thermo Fisher Scientific). The NanoDrop 2000 spectrophotometer (Thermo Fisher Scientific) was used to assess RNA yield and quality. […] Quantitative real-time PCR was performed by mixing cDNA, gene-specific primers, and IQ SYRB Green Supermix and detected by iCycler QTX detection system (Bio-Rad). The 2-ΔCt method was used to quantitate fold changes by normalizing to GAPDH. […]

With “RL-S249D/T252D: S249/T252 phospho-mimicking R-Linker (RL) peptide: fragment of RB-N containing 21 amino acids surrounding S249/T252, expressed SFB-tagged or by lentivirus (NGDPRDPRRGQNRSARIAKQL; also: expressed SFB-tagged (tag left off))” the “PD-L1 expression in p65-proficient cells” value ([1]; PC-3 cells transfected with SFB-tagged peptide, 24 hours) was “largely inhibited”, the “PD-L1 expression (FIG. 6G)” value ([1]; PC-3 cells transfected with peptide construct) was “almost completely blocked” and the “PD-L1 expression in p65-depleted cells” value ([1]; PC-3 cells with p65 shRNA, transfected with SFB-tagged peptide, listed as RL-S249/T252D peptide) was “little or no effect”. For the same substance, the “gamma irradiation-induced upregulation of PD-L1” value ([1]; PC-3 cells, ectopic expression of peptide) was “largely, but not completely blocked”, the “gamma irradiation-induced upregulation of PD-L1” value ([1]; PC-3 cells, ectopic expression of peptide, listed as RL-S249/T252D) was “largely diminished” and the PD-L1 basal level ([1]; PC-3 cells, ectopic expression of peptide, no irradiation) was “decreased”. The “binding of in vitro transcribed and translated RL peptide to p65-N” value [2] was “much stronger”, the “expression of anti-apoptotic / pro-survival NFκB target genes” value ([3]; PTEN-CaP8 cells, lentiviral peptide expression) was “blocked” and the “Pd-l1 expression in PTEN-CaP8 cells” value ([3]; lentiviral Tsin-RL S249D/T252D, 72 hours) was “completely blocked”.
